Measured values reported in paper PMC11550293, “Biochemical characterization of a recombinant laccase from Halalkalibacterium halodurans C-125 and its application in the biotransformation of organic compounds” (Biotechnology Letters, 2024).

B1: rLac-HhC125 (Halalkalibacterium halodurans C-125) (protein)
chain: DDHSEMDHGNNQQDEQNEGTFEDGKKVFNLEVTETHWMFNDEVMMDAWTYNGTLPGQEIRVQEGDEVVINVKNSLNVPTALHLHGFPVPNEMDGVPGVTQNAIMPGEEFTYEYQANVPGTYWYHSHQDGATQVDRGLYGVFIVEPVDPESYDTDVAIVIDEFASMGMGMGMDHSTMDHGDMEHDGNDDMSHSEMMNEMYDTMVINGKADPQIESINVVEGNRVKLRFVNAGLFTQVVSIPEHSFKITHYDGQPVNEPDVLQDTAFRIAPAERYDLEIIMDNPGAWGIQVFAEENQERLQALIPLVYEEYEDEELQTVDSISSFFDLTTYGIPKELDIGDITKEYDMLLGSDDGGDTFTINGKKFPNHEIYDVEEGDMVKFTIINDTDFDHPMHLHGDFFHVISKGGKAIQGSPVLKDTLNVRPGETYEIVFEAKNPGNWMFHCHEFHHASGGMVAEIHYEGFELPFTPDPNIPNMPE
notes: native signal peptide removed (forward primer encodes MDDHSEMD...), pET28-a(+) BamHI/HindIII, E. coli BL21(DE3); partially purified by SEC; theoretical monomer 54 kDa; monomer and possibly dimer

Key:
[1] = target: T1, rLac-HhC125 (Halalkalibacterium halodurans, UniProt Q9KB49); assay: biochemical; details: read-out: Residual activity (%) ± SD (0 min)
T1 construct: gene BH2082

[2] = substrate: COc1cc(C=NN=Cc2cc(OC)c(O)c(OC)c2)cc(OC)c1O; assay: purified protein; type: biochemical, Halalkalibacterium halodurans; details: 100 mM Tris-HCl pH 8, 2 mM CuSO4, enzyme pre-treated 50 °C 20 min, partially purified enzyme

| Molecule | remaining activity at 1000 µM [1] | Km [2] |
| --- | --- | --- |
| NC(=S)Nc1ccccc1 [Phenylthiourea] | 3.9 ± 3.8% |  |
| B1 |  | 2.48 µM |
